In patent US20060204980A1, “Colorectal cancer therapies” (priority 2004, published 2006):
Entries after “also recorded” stand apart in the source; their conditions may differ.

Legend:
[1] = test system: in vivo adapted p53^+/+ HCT116 cells; assay: Xenograft tumor model with in vivo adapted p53+/+ HCT116 cells; design: species or system CB17 SCID/beige mice
Description: In vivo adapted p53^+/+ HCT116 cells (2.5×10^6) were injected in the flank of CB17 SCID/beige mice (Taconics, Germantown, N.Y.) and allowed to form palpable solid tumors for 4-6 days. […] Tumor measurements were taken daily for a week with a caliper. Tumor volume was calculated according to the formula ½ [length (mm)]×[width (mm)]^2.
Adapted HCT116 cells in CB-17 SCID/beige mice gave rise to rapidly growing solid tumors over a one-week period. […] See filled-in circles in FIG. 7.

[2] = test system: p53^+/+ HCT116 colorectal carcinoma cells; assay: Western blotting of p53 pathway proteins in treated p53+/+ HCT116 cells; assay type: cell-based
Description: (§1) Cells were collected and centrifuged at 3,000 rpm for 5 minutes at 4° C., and washed in PBS (pH 7.2). The cell pellet was solubilized in lysis buffer (20 mM Tris, pH 7.2, 0.5% deoxycholate, 1% Triton X-100, 0.1% SDS, 150 mM NaCl, 1 mM EDTA) containing proteases inhibitors (Complete, Roche Applied Science) for 30 min at 4° C. The lysate was cleared by centrifugation for 15 minutes, and protein concentration was evaluated using a Bio-Rad protein assay system (Bio-Rad Laboratories, Hercules, Calif.). Samples (30 μg) were separated by SDS-polyacrylamide gel, transferred to nylon membranes (Millipore), and incubated with primary antibodies to p53 (Oncogene Research Products, FL-393, Santa Cruz Biotechnology, Inc., Santa Cruz, Calif.), p21^Waf1/Cip1 (Oncogene Research Products), XIAP (BD Transduction Laboratories), survivin (NOVUS Biologicals, Littleton, Colo.), MDM2 (Santa Cruz Biotechnology, Inc.), p14^ARF (NOVUS Biologicals), caspase-3 (Cell Signaling Technology), cleaved caspase-3 (Cell Signaling Technology), β-catenin (BD Transduction Laboratories), cyclin B1 (GNS1, Santa Cruz Biotechnology, Inc.), GSK3β (Santa Cruz Biotechnology, Inc.), or β-sactin (Sigma) with detection of reactive bands by chemiluminescence (Amersham). Cells were analyzed for hypodiploid DNA content by propidium iodide staining and flow cytometry as described in O'Connor et al., Cancer Cell, 2:43-54 (2002). Chemicals whose source is not explicitly listed were or can be obtained from Sigma.
To explore the link between GSK3β inhibition and p53 modulation, in vivo, HCT116 cells were treated with Li, TDZD or SB216763, and analyzed cells by Western blotting. p53^+/+ or p53^−/− HCT116 cells were incubated with the following GSK3β inhibitors, LiCl (Sigma, 30 mM), thiadiazolidinone-8 (TDZD) (Calbiochem, 0-20 μM), or SB216763 (Sigma, 20 μM), cells were harvested after 6-24 hours, and samples were analyzed by Western blotting as described in Example 2. […]

[3] = test system: p53^−/− HCT116 colorectal carcinoma cells; assay: Western blotting of p53 pathway proteins in treated p53-/- HCT116 cells; assay type: cell-based
Description: as §1
To explore the link between GSK3β inhibition and p53 modulation, in vivo, HCT116 cells were treated with Li, TDZD or SB216763, and analyzed cells by Western blotting. p53^+/+ or p53^−/− HCT116 cells were incubated with the following GSK3β inhibitors, LiCl (Sigma, 30 mM), thiadiazolidinone-8 (TDZD) (Calbiochem, 0-20 μM), or SB216763 (Sigma, 20 μM), cells were harvested after 6-24 hours, and samples were analyzed by Western blotting as described in Example 2.

CC(C)[C@H](CO)Nc1nc(Nc2cccc(Cl)c2)c2ncn(C(C)C)c2n1 [Purvalanol A]
systemic toxicity, weight loss ([1]; 20 mg/kg i.p. daily for 5 consecutive days): No signs of systemic toxicity or weight loss | early tumor growth (tumor volume) ([1]; 25 mg/kg i.p. daily for 5 days): significantly inhibited early tumor growth | tumor growth (tumor volume) ([1]; 50 mg/kg i.p. injection daily for 5 days, versus lower dose): did not result in further inhibition of tumor growth | local or systemic toxicity, weight loss ([1]; 25 and 50 mg/kg i.p. daily for 5 days): no signs of local or systemic toxicity or weight loss | MDM2 expression (Western blot) ([2]; HCT116 cells): reduced expression | p14^ARF expression (Western blot) ([2]; HCT116 cells, relative to vehicle): upregulation of p14^ARF | XIAP expression (Western blot) ([2]; p53+/+ HCT116): no changes in the expression | survivin expression (Western blot) ([2]; p53+/+ HCT116): loss of survivin expression; also recorded: time-dependent downregulation of survivin | caspase-3 cleavage (Western blot) ([2]; p53+/+ HCT116, 10 μM, 6-48 hour): time-dependent cleavage of 32 kD proform caspase-3 to active caspase-3 fragments | p21^Waf1/Cip1 expression (Western blot) ([2]; p53+/+ HCT116, 6-24 hours): upregulation of p21^Waf1/Cip1 | p53 expression (Western blot) ([2]; p53+/+ HCT116, 6-24 hours): time-dependent accumulation of p53 | p53-reactive material (Western blot) [3]: did not modulate the expression of p53-reactive material | survivin expression (Western blot) [3]: no significant changes in survivin levels
